Measurements: patent US5569456A, “Biologically active rupununines” (priority 1994, dated 1996)

Columns and labels:
[1] = Stability of rupununine crystals under nitrogen at room temperature; format: physicochemical; conditions: crystals kept under nitrogen at room temperature, prolonged periods
Experimental: (§1) Rupununine (100 mg.) was dissolved in the minimum volume of distilled acetone (2 ml). The solution was warmed gently, filtered and then left in the refrigerator overnight. This produced white needles which were recrystallized in acetone giving crystalline rupununine (45 mg.). Further crystalline samples were also obtained by the same treatment with acetone, of Fraction C.1 and C.2. The crystals were dried in a drying pistol under nitrogen, over phosphorus pentoxide at 60° C. overnight. […] The crystals melted between 214°-217° C., and were fairly stable, if kept under nitrogen at room temperature, even for prolonged periods.

[2] = Solubility of crystalline rupununine in organic solvents; format: physicochemical; conditions: crystalline white solid
Experimental: as §1

stability [1]: fairly stable | solubility in chloroform ([2]; chloroform): fairly soluble | solubility in ethanol ([2]; ethanol): fairly soluble | solubility in ether ([2]; ether): only partially soluble | solubility in methanol ([2]; methanol): fairly soluble
Substance: rupununine
